This is an account of results in patent US7029879B1, “Iodine uptake restoration in thyroid cancer” (University of Kentucky Research Foundation, priority 1999, dated 2006).

Holding throughout (format): cell-based, human
Assay [1] concerns KAK-1 cells (benign follicular adenoma). The experiment in a line: Iodide uptake assay (specific 125I uptake), KAK-1. Particulars: for Specific ^125I Uptake: KAK-1. As for the experimental part: (§1) Cell lines, for evaluation of iodide-uptake and hNIS expression, were grown in phenol-red-free RPMI 1640 with 5% fetal bovine serum (FBS), 100 nM sodium selenite and 0.1 nM bovine TSH (basal medium) (20). They were plated at a density of 3–5×10^4 cells/9.4 cm^2, in triplicate in basal medium, and grown for 2–3 days at 37° C. in 5% CO2. They were treated with dimethylsulfoxide (DMSO, 25 μM daily for 3 days), sodium butyrate (0.5 or 1.0 mM), phenylacetate (pH 7.0, 5 or 10 mM) or 5-azacytidine (0.5 or 1.0 μM, in 25 μM DMSO, daily for 3 days) until control cells were 80% confluent (3–4 days), then changed to fresh basal medium and grown for an additional 24 hrs.
(§2) Cell lines, treated with differentiation agents and control cultures, were washed with 2 mL of buffer containing: 10 mM HEPES ([…]), 5.5 mM glucose, 5.4 mM KCl, 1.3 mM CaCl2, 0.4 mM Na2HPO4, 0.44 mM KH2PO4, and either 137 mM NaCl (Buffer A) or 100 mM choline chloride (Buffer B). After a 60 min incubation in the same buffer supplemented with Na(^125I) (1.0 μCi/2 mL) and 1.0 μM NaI, cells were washed once with Buffer A, lysed with 0.1 M NaOH and gamma counted (5). A parallel set of dishes, similarly plated and treated, were used for normalization of uptake activity, using 3-(4,5-dimethylthiazol-2-yl)-2,5-diphenyltetrazolium bromide (MTT) assay (25) as an index of cell viability. Gamma counts of cells incubated in Buffer B were subtracted from counts of cells incubated in Buffer A, under corresponding conditions, to account for non-specific binding of radioiodide.

A further assay concerns TTF-1 mRNA. The experiment in a line: TTF-1 mRNA expression by RT-PCR in treated cell lines. The note with it: for induction of TTF-1 mRNA expression: KAT-5 and KAT-10 (basal TTF-1 undetectable). The procedure:
as §1
Total RNA and genomic DNA from: normal human thyroid, thyroid tumors, and cell lines (treated with agents described above), were isolated by the acid-guanidinium-phenol-chloroform method (21). All surgical samples were snap-frozen and stored at −80° C. until processed by homogenization in Trizol reagent (Life Technologies, Gaithersburg, Md.) while still frozen. Complementary DNA (cDNA) was synthesized from 1.0 μg of total RNA using MMLV reverse transcriptase (RT) with random-hexamer primers (Clontech, Palo Alto, Calif.). Each 50 μL polymerase chain reaction (PCR) vessel contained: 60 mM Tris HCl, pH 9.0, 15 mM ammonium sulfate, 3.5 mM MgCl2 (1.5 mM for hTTF-1), 250 μM dNTPs (Boehringer-Mannheim, Indianapolis, Ind.), 0.2 μM each primer pair, 1 U AmpliTaq DNA polymerase (Perkin-Elmer, Norwalk, Conn.), 0.2 μg TaqStart Antibody (Clontech) and 3% cDNA. β-actin amplification (primers, Stratagene, La Jolla, Calif.) confirmed cDNA integrity, purity, and template equivalence for semiquantification. PCR primers (upstream 5′ to 3′/downstream 5′ to 3′, in all cases) used for amplification were, for hNIS (5), CTGCCCCAGACCAGTACAT GCC (SEQ ID NO. 1)/[…] (SEQ ID NO. 2) (to amplify a coding region spanning four introns (4) yielding a 303 bp product from cDNA) and for Pax-8, […] (SEQ ID NO. 3)/[…] (SEQ ID NO. 4)((22) to amplify a 329 bp product). Amplification conditions for hNIS and Pax-8 were: denaturation (95° C.×5 min); 40 cycles of 20 sec at 95° C. and 60 sec at 68° C.; followed by extension at 72° C. for 3 min. The hTTF-1 product was amplified with intron spanning primers, […] (SEQ ID NO. 5)/[…] (SEQ ID NO. 6), which amplify a 263 bp fragment. The conditions were: 95° C. for 5 min; 45 cycles of 95° C. for 20 sec, 60° C. for 60 sec, and 72° C. for 30 sec; followed by extension at 72° C. for 3 min. The RT-PCR products were resolved on 2% agarose gels and visualized by ethidium bromide staining.

Assay [2] relates to NPA'87 cells (papillary carcinoma). The experiment in a line: Iodide uptake assay (specific 125I uptake), NPA'87. The note with it: for Specific ^125I Uptake: NPA'87. As for the experimental part:
as §1, §2

For assay [3], the system named is KAT-5 cells (papillary carcinoma). The experiment in a line: Iodide uptake assay (specific 125I uptake), KAT-5. As for the experimental part: as §1, §2
Setting [4] is: high: AzaC 1.0 μM, NaB 1.0 mM, PhAc 10 mM.
Setting [5] is: low: AzaC 0.5 μM, NaB 0.5 mM, PhAc 5.0 mM.
Setting [6] is: NPA'87, high: AzaC 1.0 μM, NaB 1.0 mM.

On to `CCCC(=O)[O-].[Na+]` [NaB, sodium butyrate], for which the “Specific ^125I Uptake” value in assay [1] (setting [4]), in assay [1] (setting [5]), in assay [2] (setting [4]), in assay [2] (setting [5]), in assay [3] (setting [4]) and in assay [3] (setting [5]) was “−” each time. For the same molecule, the “induction of TTF-1 mRNA expression” value in the assay on TTF-1 mRNA is “did not have such an effect in either of the cell lines”. Moreover, the “TTF-1 mRNA” value with TTF-1 mRNA (KAT-10, high: NaB 1.0 mM) was “−”; with TTF-1 mRNA (setting [6]), “+”. Besides, the iodide uptake activity entry in assay [2] (NPA'87 cells, 1.0 mM sodium butyrate) is “slightly increased”.
Consider `Nc1ncn([C@@H]2O[C@H](CO)[C@@H](O)[C@H]2O)c(=O)n1` [AzaC, 5-azacytidine], for which the “Specific ^125I Uptake” value in assay [1] (setting [4]) is “+”; in assay [1] (setting [5]) it was “−”; in assay [2] (setting [4]) it was “+”; in assay [2] (setting [5]), “−”; in assay [3] (setting [4]), “−”; in assay [3] (setting [5]), “−”. In addition, the “enhancement of ^125I uptake” value in assay [1] (KAK-1 cells, 0.5 μM 5-azacytidine) was “no enhancement of uptake”. The “increase in ^125I uptake as compared with untreated cells” value in assay [1] (KAK-1 cells, 1.0 μM 5-azacytidine) is “greater than two-fold”. The “TTF-1 mRNA” value with TTF-1 mRNA (KAK-1, high: AzaC 1.0 μM) was “+”; in the assay with TTF-1 mRNA (KAK-1, low: AzaC 0.5 μM), “+”; in the assay on TTF-1 mRNA (KAT-5, high: AzaC 1.0 μM, PhAc 10 mM), “+”; in the assay with TTF-1 mRNA (KAT-10, low: AzaC 0.5 μM) it was “+”; in the assay with TTF-1 mRNA (setting [6]), “+”. In the assay with TTF-1 mRNA, the “induction of TTF-1 mRNA expression” value is reported as “induced”. Further, in assay [2] (NPA'87 cells, 1.0 M 5-azacytidine (so in the source)), the increased iodide uptake result is “over 15 fold”.
